According to a melting point compilation (Tetko et al.; mined from patent text by program, amines drawn as free bases though some values may be those of a salt):

Compared with CC1(C(=O)c2c[nH]c3ncc(Br)nc23)CCCC1, CN1CCC(c2c[nH]c3ccc(NC(=O)c4sccc4Br)nc23)CC1 is higher in melting point: 207 to 208 °C for the first, 245 to 247 °C for the second.

First: COc1cccc(CN2N=C(c3ccc(OC)c(OC)c3)[C@@H]3CCCC[C@@H]3C2=O)c1 (relative stereo)
Second: COc1ccc(N)c(-c2ccc3cc(OC)c(OC)cc3c2)c1
The melting point of the first is lower: 115 °C for the first, 158 to 160 °C for the second.

First: CN(CC(=O)C(Cc1ccccc1)NC(=O)c1ccccc1)C(=O)N1CCCC1C(=O)O (centres undefined)
Second: O=C1CN(C(c2ccccc2)c2ccccc2)N1
The melting point of the first is lower: 60 to 82 °C for the first, 160 to 163 °C for the second.

Compared with CC(C)CCCC(C)C1CCC2C3CC=C4CC(OC(=O)C(C)(C)CO)CCC4(C)C3CCC12C (centres undefined), CC(=O)OCC(=O)C1C(C)CC2C3C=C(Cl)C4=CC(=O)C=CC4(C)C3C(O)CC21C (centres undefined) is higher in melting point: 174 to 176 °C for the first, 192 °C for the second.

First: COc1nccc2c(N)cccc12
Second: COc1ccc(OC)c2[nH]c(-c3ccccc3)nc12
The melting point of the first is lower: 53 to 57 °C for the first, 226 to 227 °C for the second.

First: C/C(=C\Cn1oc(=O)[nH]c1=O)c1ccc2oc(Cc3nc(-c4ccccc4)oc3C)cc2c1
Second: CCN1C(=O)CN=C(c2ccccc2F)c2cc(C(C)=NO)ccc21
The melting point of the first is lower: 81 to 83 °C for the first, 236 to 238 °C for the second.

First: COP(=O)(NNC(C)(C)C)OC
Second: COc1cccc(NC(=O)C(C)(C)C)c1C(C)=O
The melting point of the first is higher: 61 to 68 °C for the first, less than 48 °C for the second.

First: CCn1c(CCl)nc2c([N+](=O)[O-])cc(Br)cc21
Second: Cc1cc(C2=NNC(=O)C2)ccc1[N+](=O)[O-]
The melting point of the first is lower: 154 to 155 °C for the first, 218 to 219 °C for the second.

Compared with CC(=O)Nc1c(N)cc(C(=O)O)c(O)c1Br, COC(=O)c1cc(C(C)=O)c(O)cc1O is lower in melting point: 210 to 211 °C for the first, 124 to 126 °C for the second.

First: Oc1c(-c2ccccc2)cc(Cn2c(=S)sc3ccccc32)cc1-c1ccccc1
Second: O=c1oc(-c2ccccc2)cc(O)c1SCc1ccc(OCc2ccccc2)cc1
The melting point of the first is lower: 145 to 146 °C for the first, 185 to 186 °C for the second.

First: CC(C)N(C)CCOc1ccc(-n2ccc(OCc3ccc(Cl)cn3)cc2=O)cc1
Second: COc1ccc(C(C)N(C)CCCOc2ccc(S(=O)(=O)c3c(C(C)C)cn4ccccc34)cc2)cc1OC (centres undefined)
The melting point of the first is higher: 137 to 138 °C for the first, 82 to 83 °C for the second.

First: Cc1ccnc(N2CCN(CCc3c(C)n4c5c(cc(O)cc35)CCC4)CC2)c1
Second: Cc1[nH]cnc1/C=C1\CCc2c(c3cccc4c3n2CCC4)C1=O
The melting point of the first is lower: 110 °C for the first, 260 to 264 °C for the second.

First: CC(C)c1n[nH]c2c(NCc3cccc(O)c3)ncnc12
Second: CCOCc1nc2c(N)nc3ccccc3c2n1NC(C)C
The melting point of the first is higher: 220 to 221 °C for the first, 162 to 164 °C for the second.

First: CCOc1cc(OCCCc2cn(-c3ccc(C(F)(F)F)cn3)nc2-c2ccccc2)ccc1CCC(=O)O
Second: COc1cc(OCC(=O)O)c(C)cc1SCc1ccc(-c2ccc(C(F)(F)F)cc2)cc1
The melting point of the first is lower: 135 to 136 °C for the first, 170 to 171 °C for the second.

First: OCC(O)Cn1ncc2c(N(Cc3cccc(Cl)c3)C3CCCC3)ncnc21 (centres undefined)
Second: O=C(C1CCC(Nc2ncc3ncnc(Nc4ccc(F)c(Cl)c4)c3n2)CC1)N1CCNCC1 (centres undefined)
The melting point of the first is lower: 98 to 100 °C for the first, 178 to 182 °C for the second.

First: O=C(O)c1ccc(S(=O)(=O)n2cccc2)s1
Second: Cc1nc2cccc(S(=O)(=O)n3c(CCCC(=O)O)cc4nc(Cl)ccc43)c2s1
The melting point of the first is lower: 191 to 194 °C for the first, 225 °C for the second.

First: C=CCc1ccc(OCC2CCCO2)c2c(=O)cc(C(N)=O)oc12 (centres undefined)
Second: C=CCOc1cc(C(=O)OCC)nc2c(CCC)c3oc(C(=O)OCC)cc(=O)c3cc12
The melting point of the first is higher: 212 to 214 °C for the first, 151 to 153 °C for the second.

Compared with C1=C(c2c[nH]c3ccccc23)CCN(CC2CCc3ccccc32)C1 (centres undefined), CCC(=O)Nc1nc(CN2CCC(c3c[nH]c4ccccc34)CC2)cs1 is higher in melting point: 168 to 170 °C for the first, 192 to 195 °C for the second.

First: Cc1noc(C)c1S(=O)(=O)Nc1ccc2c(c1)S(=O)(=O)C=C(c1c(O)c3cc(F)ccc3n(CCC3CC3)c1=O)N2
Second: CCC1c2ccc(C#N)n2-c2ccc(F)cc2N1S(=O)(=O)c1ccc(O)c(C)c1 (centres undefined)
The melting point of the first is lower: 150 to 157 °C for the first, 192 to 194 °C for the second.

First: CCC(=O)N1N=C(c2ccc([N+](=O)[O-])cc2)c2cc3c(cc2CC1C)OCO3 (centres undefined)
Second: CSc1ccc(-c2nn(CC3CC3)c(=O)cc2-c2ccc(Cl)cc2)cc1
The melting point of the first is higher: 189 to 190 °C for the first, 142 to 143 °C for the second.

First: CC1CC2=CC(=O)C=CC2(C)C2C(=O)CC3(C)C(=O)CCC3C12 (centres undefined)
Second: CCn1cc(C(=O)O)c(=O)c2cc(F)c(N3CC4CCC3CN4)c(F)c21 (centres undefined)
The melting point of the first is higher: 257 to 259 °C for the first, 255 to 257 °C for the second.

First: CC(C)(C)c1cc(-c2nnc(N)o2)cc(C(C)(C)C)c1O
Second: CC(C)(C)[Si](C)(C)Oc1cc(Cl)cc(C(O)(C#CC2CC2)C(F)(F)F)c1N (centres undefined)
The melting point of the first is higher: 244 to 245 °C for the first, 125 to 126 °C for the second.

First: FC(F)(F)c1ccc(NC(=S)Nc2cc(C(F)(F)F)nc(C(F)(F)F)c2)cc1
Second: O=c1[nH]c2cc(-c3ccncc3)c(C(F)(F)F)nc2[nH]1
The melting point of the first is lower: 125 to 132 °C for the first, greater than 300 °C for the second.

First: CC(=O)[C@H]1CC[C@H](CNC(=O)OCc2ccccc2)CC1
Second: CC(C(=O)O)=C(NC(=O)C(F)(F)F)c1ccccc1
The melting point of the first is lower: 66 to 67 °C for the first, 140 °C for the second.

First: Cc1ccc(S(=O)(=O)CCOc2ccccc2OCCS(=O)(=O)c2ccc(C)cc2)cc1
Second: COc1ccc(-c2cc(C)cn2-c2ccc(S(N)(=O)=O)cc2)cc1C
The melting point of the first is lower: 95 to 96 °C for the first, 149 to 151 °C for the second.

First: CNC(=O)c1cc2c(Oc3ccc(-n4cccn4)cc3)cncc2s1
Second: O=C(O)c1ccc(Nc2nccc(-c3cccnc3)n2)cc1
The melting point of the first is lower: 192 to 194 °C for the first, 311 to 317 °C for the second.

Compared with BrCC(=CSc1ccccc1Br)c1ccccc1, CC(C)(C)C(=O)CC(c1ccc(Cl)cc1)S(=O)(=O)c1ccccc1 (centres undefined) is higher in melting point: 65 °C for the first, 145 to 146 °C for the second.

First: CCC(=O)Cc1nc2ccccc2c(=O)o1
Second: CNC(=O)/C(=N/OC)c1ccccc1COc1cccc(OC)n1
The melting point of the first is lower: 70 to 72 °C for the first, 81 to 82 °C for the second.

Going from O=C(Nc1nc(C(Cl)(Cl)Cl)ns1)c1cccc([N+](=O)[O-])c1 to N#Cc1c[nH]cc1-c1cccc(Cl)c1F, the melting point falls from 198 °C to 178 °C.

First: Cc1cc(Nc2cc(-c3cnc4cc[nH]c4c3)cn3ccnc23)nn1CCO
Second: CN1CCN(Cc2ccc(-c3cc4c(Nc5ccc6[nH]ccc6c5)c(C#N)cnc4s3)nc2)CC1
The melting point of the first is lower: 127 to 130 °C for the first, greater than 245 °C for the second.

Compared with CSc1nc(P(=O)(c2ccccc2)c2ccccc2)cc(P(=O)(c2ccccc2)c2ccccc2)n1, C=CCOc1nc(N(CC)Cc2cc(Br)ccc2OCc2ccccc2)ccc1C(=O)O is lower in melting point: 221 to 222 °C for the first, 129 to 131 °C for the second.

First: CC(=O)C(=O)NCc1nnc(C)n1-c1cc(Cl)cc(C(=O)c2ccccc2Cl)c1
Second: CON=C(c1noc(C)n1)c1ccccc1COc1ccc(Cl)cc1
The melting point of the first is higher: 178 to 180 °C for the first, 125 to 126 °C for the second.

Compared with O=[N+]([O-])C=C1SCCN1Cc1ccccc1, CN1CCC(Cc2ccc(Cl)nc2)C1=C[N+](=O)[O-] (centres undefined) is higher in melting point: 136 to 138 °C for the first, 141 to 142 °C for the second.

First: N=C(NC1CC1)N[N+](=O)[O-]
Second: O=C(O)C(=O)c1ccc(OCCOC2CCCCC2)cc1
The melting point of the first is higher: 127 to 130 °C for the first, 96 to 98 °C for the second.

First: CCN(C(=O)N(C)C(=O)NC)c1ccccc1
Second: CN(C)c1ccc(C(=O)c2ccc(OCCO)cc2)cc1
The melting point of the first is lower: 57 to 58 °C for the first, 142 to 143 °C for the second.

Compared with Cc1c(Cl)cccc1N=Cc1ccc(Cl)cc1, CCOC(=O)C(C)Oc1ncn(-c2ccc(Cl)cc2)n1 (centres undefined) is lower in melting point: 79 to 81 °C for the first, 62 to 64 °C for the second.

Compared with O=C(Nc1cccnn1)N1CCN(c2nccc(-c3c(F)cccc3F)n2)CC1, N#Cc1ccccc1N1CCN(Cc2nc3ccccc3[nH]2)CC1 is higher in melting point: 228 to 229 °C for the first, 236 to 237 °C for the second.

First: CN1CCC(c2c[nH]c3ccc(NC(=O)C4CCCC4)nc23)CC1
Second: O=C(CCN1CCCC1)Nc1ccc2[nH]c3ccc(NC(=O)CCN4CCCC4)cc3c(=O)c2c1
The melting point of the first is lower: 119 to 121 °C for the first, greater than 320 °C for the second.

First: CN(C)CC(=O)Nc1cccc(-c2cc(-c3ccccc3O)nc(NC(=O)c3cccs3)c2C#N)c1
Second: COCC(C)N(C)Cc1c(-c2ccc(NC(=O)NOC)cc2)sc2c1c(=O)n(-c1ccccc1)c(=O)n2Cc1c(F)cccc1F (centres undefined)
The melting point of the first is higher: 220 to 221 °C for the first, 154 to 155 °C for the second.

First: Cc1ccc(Oc2ccc(C(=O)N=C(N)N)cc2S(C)(=O)=O)cn1
Second: CCOc1cc2ncc(C#N)c(CC(=O)c3ccc(Br)cc3)c2cc1OCC
The melting point of the first is lower: 197 to 199 °C for the first, 210 to 213 °C for the second.

First: CO[C@@H]1[C@@H](OC)[C@H](C)O[C@@H](OC(=O)Nc2ccc(-c3ncn(-c4ccc(OC(F)(F)F)cc4)n3)cc2)[C@@H]1OC
Second: CSc1nnc(-c2ccc3ncn(-c4cccc(OC(F)(F)F)c4)c3c2)o1
The melting point of the first is higher: 186 to 188 °C for the first, 149 to 150 °C for the second.

First: COC(=O)c1c(OC)cc(C=O)cc1OC
Second: COc1cc(OC)c(C(C)=O)cc1OC
The melting point of the first is higher: 113 to 114 °C for the first, 91 to 93 °C for the second.

First: CCCCc1sc(C(N)=O)c2c1-c1nn(C)cc1CC2
Second: Cn1ncc2c1-c1c(Sc3ccccc3)sc(C(N)=O)c1CC2
The melting point of the first is higher: 227 to 228 °C for the first, 140 to 141 °C for the second.

Going from OC1CSC(Oc2cc(F)ccc2-c2ccncc2)C(O)C1O (centres undefined) to CC(NC(=O)Cc1cc(F)cc(F)c1)C(=O)NC1C(=O)NC(c2ccncc2)c2ccccc21 (centres undefined), the melting point falls from 209 °C to 100 °C.

Compared with CC(=O)O[C@@]12C[C@@H](OC1=O)C(=O)[C@H](O[Si](C)(C)C(C)(C)C)C2, C=CCOC(=O)c1cc(NC(=O)OC(C)(C)C)ccc1OCC=C is lower in melting point: 134 to 137 °C for the first, 77 to 78 °C for the second.

First: Oc1ccc2c(-c3nc4cc(O)ccc4o3)cccc2c1
Second: NC1=NC(c2ccncc2)(c2cccc(-c3cccnc3F)c2)C2=NCCCN12 (centres undefined)
The melting point of the first is higher: 232 to 234 °C for the first, 125 to 131 °C for the second.

First: CCOC(=O)C(=NOCSC)c1csc(NC=O)n1
Second: CCC(Br)=C(CC)S(=O)(=O)CBr
The melting point of the first is higher: 130 to 131 °C for the first, 96 to 97 °C for the second.

First: CCCCCCCCCCCCCCCC1CN(C(=O)c2cc(OC)c(OC)c(OC)c2)CCN1C(=O)c1cc(OC)c(OC)c(OC)c1 (centres undefined)
Second: CCOC(=O)c1[nH]c2cc(Br)c(Cl)cc2c1-c1ccccc1F
The melting point of the first is lower: 68 °C for the first, 193 to 194 °C for the second.

First: COC(=O)Nc1ccc(OCCn2ccnc2)cc1
Second: CC(=O)c1ncccc1C(O)=NNC(=O)Nc1cc(F)cc(F)c1
The melting point of the first is higher: 152 to 153 °C for the first, 79 to 82 °C for the second.

Compound CC1(C)CCCC(C)(C)N1Oc1ccc(C(F)(F)F)cc1[N+](=O)[O-] has a melting point of 54 to 55 °C.
